This passage reports IC50, EC (mitotic index 0.5) and ILS results from patent US4451650A, “Pyrido[4,3-b][1,4]oxazines and pyrido[4,3-b][1,4]thiazines” (Southern Research Institute, priority 1982, dated 1984).

Assay [1] concerns lymphoid leukemia L1210 cells. The assay can be described thus: Inhibition of proliferation of cultured lymphoid leukemia L1210 cells (48 hours). In kind it is cell-based. The following applies: read-out: L1210 ID50 (concentration of agent that inhibits proliferation of cultured lymphoid leukemia L1210 cells to 50% control growth during 48 hours). Here is the method: ^a Concentration of agent that inhibits proliferation of cultured
lymphoid leukemia L1210 cells to 50% control growth during 48 hours
[Wheeler, G. P., Bowdon, B. J., Werline, J. A., Adamson, D. J., and
Temple, C., Jr., Cancer Research, 1982, 42, 791].

Assay [2] has as its system lymphoid leukemia L1210 cells. The assay can be described thus: Mitotic index (fraction of cells in mitosis) of cultured lymphoid leukemia L1210 cells, 12 hours exposure. The class given is cell-based. To be noted: Mus musculus, exposure period of 12 hours, read-out: L1210 MI0.5 (concentration of agent that causes a mitotic index of 0.5). The protocol:
^b Concentration of agent that causes a mitotic index (fraction of
cells in mitosis divided by total cells) of 0.5 for cultured lymphoid
leukemia L1210 cells during an exposure period of 12 hours [Wheeler, G.
P., Bowden, B. J., Werline, J. A., Adamson, D. J., and Temple, C., Jr.,

The subject of assay [3] is Lymphocytic leukemia P388. The assay can be described thus: Increase in life span, lymphocytic leukemia P388, 10^6 tumor cell implant, i.p. The class given is in vivo. To be noted: Mus musculus, P388, ip, schedule 1-5, read-out: P388 % ILS (increase in life span at the highest nontoxic dose). The source says: ^c Lymphocytic leukemia P388.
^d Increase in life span at the highest nontoxic dose.

With `CCOC(=O)Nc1cc2c(c(N)n1)N=C(c1ccccc1)CO2` [a], in assay [1], the IC50 amounted to 225 nM. The EC (mitotic index 0.5) in assay [2] worked out at 0.56 µM. In assay [3], the ILS at 100 mg/kg stood at 44% and the ILS at 200 mg/kg worked out at 80%.
Consider `CCOC(=O)Nc1cc2c(c(N)n1)N=C(c1ccccc1)C(C)O2` (stereo not shown) [b], for which the IC50 in assay [1] is 110 nM. In addition, the EC (mitotic index 0.5) in assay [2] stood at 0.49 µM. Besides, the ILS at 100 mg/kg in assay [3] amounted to 50%.
On to `CCOC(=O)Nc1cc2c(c(N)n1)N=C(c1ccccc1)C(c1ccccc1)O2` (stereo not shown) [c], for which the IC50 in assay [1] worked out at 880 nM. Further, in assay [2], the EC (mitotic index 0.5) worked out at 3 µM. In addition, the ILS at 200 mg/kg in assay [3] is 2%.
Take `CCOC(=O)Nc1cc2c(c(N)n1)N=C1c3ccccc3CCC1O2` (stereo not shown) [d]: the IC50 in assay [1] is more than 300 nM. The ILS at 300 mg/kg in assay [3] came to 32%.
`CCOC(=O)Nc1cc2oc(=O)c(-c3ccccc3)nc2c(N)n1` [e]: the IC50 in assay [1] was more than 3000 nM. For the same compound, in assay [3], the ILS at 300 mg/kg stood at 0%.
As for `CCOC(=O)Nc1cc2c(c(N)n1)N=C(c1cccc(OC)c1)CO2` [f], the IC50 in assay [1] came out at 52 nM. Moreover, the EC (mitotic index 0.5) in assay [2] worked out at 0.1 µM. Further, in assay [3] (50 mg/kg), the ILS at 50 mg/kg was 73%.
In the case of `CCOC(=O)Nc1cc2c(c(N)n1)N=C(c1cc(OC)c(OC)c(OC)c1)CO2` [g], the IC50 in assay [1] is more than 3000 nM. In addition, the ILS at 300 mg/kg in assay [3] came out at 0%.
`CCOC(=O)Nc1cc2c(c(N)n1)N=C(c1ccc(Cl)cc1)CO2` [h]: in assay [1], the IC50 is more than 3000 nM. Moreover, the ILS at 300 mg/kg in assay [3] came to 0%.
The like results for `CCOC(=O)Nc1cc2c(c(N)n1)N=C(c1ccc([N+](=O)[O-])cc1)CO2` [i] were, in that order, more than 3000 nM and 0%.
On to `CCOC(=O)Nc1cc2c(c(N)n1)N=C(c1ccccc1)CS2` [j], for which the IC50 in assay [1] was determined as 6100 nM. Besides, the EC (mitotic index 0.5) in assay [2] was found to be 10 µM. Further, in assay [3], the ILS at 300 mg/kg stood at 0%.
For the compound `CCOC(=O)Nc1cc2c(c(N)n1)N=C(c1ccccc1)C(C)S2` (stereo not shown) [k], the IC50 in assay [1] amounted to 1600 nM. Further, in assay [2], the EC (mitotic index 0.5) was 9.6 µM. The ILS at 150 mg/kg in assay [3] (150 mg/kg) stood at 10%.
As to `CCOC(=O)Nc1cc2c(c(N)n1)N=C(c1ccccc1)C(C)(C)S2` [l], in assay [1], the IC50 is more than 10000 nM.
As to `CCOC(=O)Nc1cc2c(c(N)n1)N=C(c1cccc(OC)c1)CS2` [m], in assay [1], the IC50 turned out to be 530 nM. Also, the EC (mitotic index 0.5) in assay [2] worked out at 2 µM. The ILS at 75 mg/kg in assay [3] (75 mg/kg) is 3%.
Take `CCOC(=O)Nc1cc2c(c(N)n1)N=C(c1ccc(OC)cc1)CS2` [n]: the IC50 in assay [1] amounted to 340 nM. Moreover, the EC (mitotic index 0.5) in assay [2] is 4.9 µM. Also, the ILS at 300 mg/kg in assay [3] was determined as 3%.
Consider `CCOC(=O)Nc1cc2c(c(N)n1)N=C(c1ccc3ccccc3c1)CS2` [o], for which the IC50 in assay [1] was determined as 580 nM. For the same compound, in assay [2], the EC (mitotic index 0.5) stood at 3 µM. Besides, the ILS at 300 mg/kg in assay [3] turned out to be 5%.
For `CCOC(=O)Nc1cc2c(c(N=CN(C)C)n1)N=C(c1ccccc1)CO2` [p], in assay [1], the IC50 is 310 nM. Further, the EC (mitotic index 0.5) in assay [2] came to 0.78 µM.
The like results for `CCOC(=O)Nc1cc2c(c(NC(=O)CBr)n1)N=C(c1ccccc1)CO2` [q] were, in that order, 2200 nM and 11 µM.

Usually ILS stands for how much longer treated animals lived than controls.
